Entries after “also recorded” stand apart in the source; their conditions may differ.
Columns and labels:
[1] = biological target: T1, adenosine kinase (Homo sapiens, UniProt P55263); conditions: cited from earlier work
[2] = test system: enzymes involved in extracellular degradation of AMP; test: Phosphate production (Malachite Green) in tissue sections from the Zusanli point; type: biochemical, mice; conditions: for rate of phosphate generation: 1 mM added as substrate, n=3; for dephosphorylation of AMP (phosphate production): inhibitor 500 μM, tissue in 1 mM AMP for 45 min
[3] = biological target: Ecto-ATPase; conditions: Crack et al.; cited from earlier work
[4] = biological target: Ecto-ATPase; conditions: cited from earlier work
[5] = test system: P2 receptors; conditions: cited from earlier work
[6] = biological target: Rat Parotid Ecto-ATPase; conditions: cited from earlier work
[7] = test system: mice with inflammatory or neuropathic pain; test: Statements covering both inflammatory and neuropathic pain models; type: in vivo; conditions: both pain models
Experimental: Peripheral inflammation was induced by injection of Complete Freud Adjuvant (CFA, mixed with an equal amount of oil, total volume 0.1 ml) in the plantar surface of the left hind paw of mice (25-30 g, Jackson labs) (Raghavendra et al., “Complete Freunds Adjuvant-Induced Peripheral Inflammation Evokes Glial Activation and Proinflammatory Cytokine Expression in the CNS,” Eur. J. Neurosci. 20:467-473 (2004), which is hereby incorporated by reference in its entirety). An equal amount of saline (0.1 ml) was injected in the right hind paw as control. […]
Mechanical allodynia was evaluated using repeated stimulations with a Von Frey filament exerting 0.02 grams of force onto the plantar surface (Colburn et al., “The Effect of Site and Type of Nerve Injury on Spinal Glial Activation and Neuropathic Pain Behavior,” Exp. Neurol. 157:289-304. (1999), which is hereby incorporated by reference in its entirety). The percentage of negative responses of a total of 10 trials was calculated for each foot. Thermal hyperalgesia was assessed using an Analgesymeter (Ugo Basile, Comerio, Italy) (Stein et al., “Intrinsic Mechanisms of Antinociception in Inflammation: Local Opioid Receptors and Beta-Endorphin,” J. Neurosci. 10:1292-1298 (1990), which is hereby incorporated by reference in its entirety). […] The paw withdrawal was repeated three times for each foot and the average calculated. […] Behavioral parameters were evaluated prior to intraplantar injection of CFA or nerve ligation (i.e. day 0), and again on day 3-4 in mice receiving the CFA injection, and at day 5-7 in mice with nerve ligation unless otherwise noted. […]

[8] = test system: mice with inflammatory pain (CFA); test: Inflammatory pain (CFA in paw): mechanical allodynia (Von Frey) and thermal hyperalgesia; type: in vivo
Text: Peripheral inflammation was induced by injection of Complete Freud Adjuvant (CFA, mixed with an equal amount of oil, […], Jackson labs) (Raghavendra et al., “Complete Freunds Adjuvant-Induced Peripheral Inflammation Evokes Glial Activation and Proinflammatory Cytokine Expression in the CNS,” Eur. J. Neurosci. 20:467-473 (2004), which is hereby incorporated by reference in its entirety). […] Neuropathic pain was induced by ligation of the sciatic nerve with 4.0 polypropylene suture in mice sedated with ketamine (60 mg/kg, i.p.) and xylazine (10 mg/kg, i.p.) (Bennett et al., “A Peripheral Mononeuropathy in Rat that Produces Disorders of Pain Sensation Like Those Seen in Man,” Pain 33:87-107 (1988); Martucci et al., “The Purinergic Antagonist PPADS Reduces Pain Related Behaviours and Interleukin-1 beta, Interleukin-6, iNOS and nNOS Overproduction in Central and Peripheral Nervous System After Peripheral Neuropathy in Mice,” Pain 137:81-95 (2008), which are hereby incorporated by reference in their entirety).
Mechanical allodynia was evaluated using repeated stimulations with a Von Frey filament exerting 0.02 grams of force onto the plantar surface (Colburn et al., “The Effect of Site and Type of Nerve Injury on Spinal Glial Activation and Neuropathic Pain Behavior,” Exp. Neurol. 157:289-304. (1999), which is hereby incorporated by reference in its entirety). The percentage of negative responses of a total of 10 trials was calculated for each foot. Thermal hyperalgesia was assessed using an Analgesymeter (Ugo Basile, Comerio, Italy) (Stein et al., “Intrinsic Mechanisms of Antinociception in Inflammation: Local Opioid Receptors and Beta-Endorphin,” J. Neurosci. 10:1292-1298 (1990), which is hereby incorporated by reference in its entirety). In short, a mobile radiant heat source was focused on the hind paw, and the paw withdrawal latencies were defined as the time taken by the mouse to remove its hind paw from the heat source (max 20 sec to avoid tissue damage). The paw withdrawal was repeated three times for each foot and the average calculated. To avoid conditioning to stimulation a 5 min rest period was interposed between each trial in both thermal and mechanical tests. Behavioral parameters were evaluated prior to intraplantar injection of CFA or nerve ligation (i.e. day 0), and again on day 3-4 in mice receiving the CFA injection, and at day 5-7 in mice with nerve ligation unless otherwise noted. Prior to injection of CCPA, saline, or acupuncture in the Zusanli point, the mice were placed in a restraining under light isoflurane anesthesia (˜1%). The total duration of anesthesia was ˜2 min and mice with inflammatory, neurogenic pain, and their controls were treated similarly. 2-chloro-N6-cyclopentyl-adenosine (CCPA, 0.1 mM, 20 μl) was injected in the Zusanli point ˜5 min before acupuncture. […] The needle was slowly rotated ˜2 time (˜20-30 sec) every 5 min for a total of 30 min during an acupuncture session. A microdialysis probe (MD-2211, Bioanalytical systems, West Lafayette, Ind.) was implanted 1-3 hrs prior to collection of microdialysis samples. The microdialysis probe was implanted in a distance of 0.4-0.6 mm from the Zusanli point. The microdialysis probe was perfused with Ringer's solution at a rate of 1 μl per minute. The microdialysates were collected on ice and the perfusate collected over a 30 min period (30 μl) was immediately frozen at −80° C. until HPLC analysis. Deoxycoformycin was administered in a dose of 50 mg/kg i.p. 30 min prior to acupuncture.

[9] = test system: fEPSP in anterior cingulate cortex; test: In vivo electrophysiology: fEPSP in left anterior cingulate cortex evoked by painful foot shock; design: species or system mice
Experimental: Mice were anaesthetized with 2-3% isoflurane, intubated, and artificially ventilated with a small animal ventilator (SAAR-830, CWE). Body temperature was monitored by a rectal probe and maintained at 37° C. by a heating blanket (BS4, Harvard Apparatus). A craniotomy (1-1.5 mm in diameter), centered 0.1 mm anterior to the bregma and 1.5 mm lateral from midline, was made over the left anterior cingulated cortex. A custom-made metal plate was glued to the skull with dental acrylic cement. The mice were for the remaining part of the experiment maintained at 2% isoflurane. LFP recordings were obtained from layer 4 of anterior cingulate cortex (ACC), 0.8 mm below the pial surface by a patch pipette (TW100E-4, WPI; outer diameter, 1.0 mm; inner diameter, 0.75 mm; tip diameter, 1-2 μm). […] Dura matter was kept intact. A custom-made bipolar electrode was inserted subcutaneously into the right hindpaw. High intensity stimulation (10 mA, 20 ms) were evoked every 120 sec. Lower stimulation intensities evoked either no or variable responses consistent with the idea that that ACC neurons respond primarily to painful stimuli Wei et al., “Potentiation of Sensory Responses in the Anterior Cingulate Cortex Following Digit Amputation in the Anaesthetised Rat,” J. Physiol. 532:823-833 (2001), which is hereby incorporated by reference in its entirety). The amplitude of the field EPSPs was measured using the pCLAMP 9.2 program (Axon Instruments, Inc., Foster City, Calif., USA).

[10] = test system: mice with neuropathic pain; test: Neuropathic pain (sciatic nerve ligation): mechanical allodynia and thermal hyperalgesia; type: in vivo
Experimental: Peripheral inflammation was induced by injection of Complete Freud Adjuvant (CFA, mixed with an equal amount of oil, total volume 0.1 ml) in the plantar surface of the left hind paw of mice (25-30 g, Jackson labs) (Raghavendra et al., “Complete Freunds Adjuvant-Induced Peripheral Inflammation Evokes Glial Activation and Proinflammatory Cytokine Expression in the CNS,” Eur. J. Neurosci. 20:467-473 (2004), which is hereby incorporated by reference in its entirety). An equal amount of saline (0.1 ml) was injected in the right hind paw as control. Neuropathic pain was induced by ligation of the sciatic nerve with 4.0 polypropylene suture in mice sedated with ketamine (60 mg/kg, i.p.) and xylazine (10 mg/kg, i.p.) (Bennett et al., “A Peripheral Mononeuropathy in Rat that Produces Disorders of Pain Sensation Like Those Seen in Man,” Pain 33:87-107 (1988); Martucci et al., “The Purinergic Antagonist PPADS Reduces Pain Related Behaviours and Interleukin-1 beta, Interleukin-6, iNOS and nNOS Overproduction in Central and Peripheral Nervous System After Peripheral Neuropathy in Mice,” Pain 137:81-95 (2008), which are hereby incorporated by reference in their entirety).
Mechanical allodynia was evaluated using repeated stimulations with a Von Frey filament exerting 0.02 grams of force onto the plantar surface (Colburn et al., “The Effect of Site and Type of Nerve Injury on Spinal Glial Activation and Neuropathic Pain Behavior,” Exp. Neurol. 157:289-304. (1999), which is hereby incorporated by reference in its entirety). The percentage of negative responses of a total of 10 trials was calculated for each foot. Thermal hyperalgesia was assessed using an Analgesymeter (Ugo Basile, Comerio, Italy) (Stein et al., “Intrinsic Mechanisms of Antinociception in Inflammation: Local Opioid Receptors and Beta-Endorphin,” J. Neurosci. 10:1292-1298 (1990), which is hereby incorporated by reference in its entirety). In short, a mobile radiant heat source was focused on the hind paw, and the paw withdrawal latencies were defined as the time taken by the mouse to remove its hind paw from the heat source (max 20 sec to avoid tissue damage). The paw withdrawal was repeated three times for each foot and the average calculated. To avoid conditioning to stimulation a 5 min rest period was interposed between each trial in both thermal and mechanical tests. Behavioral parameters were evaluated prior to intraplantar injection of CFA or nerve ligation (i.e. day 0), and again on day 3-4 in mice receiving the CFA injection, and at day 5-7 in mice with nerve ligation unless otherwise noted. Prior to injection of CCPA, saline, or acupuncture in the Zusanli point, the mice were placed in a restraining under light isoflurane anesthesia (˜1%). […]

[11] = biological target: adenosine transport; conditions: adenosine transport inhibitors; unit inferred; cited from earlier work
[12] = biological target: T1, adenosine kinase; conditions: adenosine as substrate; cited from earlier work

T1 sequence (P55263 whole entry, species assumed): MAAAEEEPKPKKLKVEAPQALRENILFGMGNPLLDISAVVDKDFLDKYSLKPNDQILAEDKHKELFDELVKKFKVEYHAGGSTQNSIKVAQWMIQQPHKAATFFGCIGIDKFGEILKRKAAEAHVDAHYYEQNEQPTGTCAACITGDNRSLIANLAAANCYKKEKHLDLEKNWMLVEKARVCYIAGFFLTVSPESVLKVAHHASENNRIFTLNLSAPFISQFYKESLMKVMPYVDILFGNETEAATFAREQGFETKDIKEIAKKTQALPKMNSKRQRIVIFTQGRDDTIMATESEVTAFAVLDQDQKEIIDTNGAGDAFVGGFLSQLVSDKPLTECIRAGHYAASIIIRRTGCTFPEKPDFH

Nc1ncnc2c1c(Br)cn2[C@@H]1C[C@H](N)[C@@H](O)[C@H]1O [A-286501, N7-((1′R,2′S,3′R,4′S)-2′,3′-dihydroxy-4′-amino-cyclopentyl)-4-amino-5-bromo-pyrrolo[2,3-a]pyrimidine]
IC50 [1]: 0.47 nM

Nc1ncnc2c1ncn2[C@@H]1O[C@H](COP(=O)(O)O)[C@@H](O)[C@H]1O [AMP]
rate of phosphate generation [2]: 0.043 ± 0.005 µM/mg/min

Nc1ncnc2c1ncn2[C@@H]1O[C@H](COP(=O)(O)CP(=O)(O)O)[C@@H](O)[C@H]1O [AOPCP]
dephosphorylation of AMP (phosphate production) [2]: did not reduce dephosphorylation of AMP

CCN(CC)c1ncnc2c1ncn2[C@@H]1O[C@H](COP(=O)(O)OP(=O)(O)C(Br)(Br)P(=O)(O)O)[C@@H](O)[C@H]1O [ARL67156]
IC50 [3]: 4600 nM | Ki [4]: 255 nM | effect on P2 receptors [5]: lack of or only has weak effect | IC50 [6]: 120000 nM

Nc1ncnc2c1ncn2[C@@H]1O[C@H](COP(=O)(O)OP(=O)(O)OP(=O)(O)O)[C@@H](O)[C@H]1O [ATP]
rate of phosphate generation [2]: 0.428 ± 0.046 µM/mg/min

OC[C@H]1O[C@@H](n2cnc3c(NC4CCCC4)nc(Cl)nc32)[C@H](O)[C@@H]1O [CCPA, 2-chloro-N(6)-cyclopentyladenosine]
course of the pain-relieving effect [7]: transient | sensitivity to painful stimulation in the contralateral (left) leg ([7]; injection in right Zusanli point): did not alter sensitivity | mechanical and thermal hypersensitivity / pain threshold in right foot ([8]; 0.1 mM, 20 μl injected in the left (contralateral) Zusanli point): no effect; also recorded: did not alter the pain threshold | mechanical and thermal pain in mice with deletion of A1 receptors ([8]; A1R KO mice): no clinical benefit | paw withdrawal (thermal) ([8]; WT mice, after 0.1 mM, 20 μl in right Zusanli point, before: 3.7±0.3): 12.7 ± 1.5 s | touch sensitivity (percentage of negative responses of 10 Von Frey trials) ([8]; WT mice, after 0.1 mM, 20 μl in right Zusanli point, before: 38.0±2.5): 85.7±2.0% | fEPSP response in mice with deletion of A1 receptors ([9]; A1R KO mice): failed to respond | fEPSP amplitude ([9]; WT, 0.1 mM 20 μl in right Zusanli point (ipsilateral), within 20 min, before ~0.65 mV): ~0.22 mV | fEPSP amplitude, % of baseline values ([9]; WT, ipsilateral injection, within 20 min): 26.6±11.0% | effect on fEPSP ([9]; administered contralateral to the painful stimulation): no effect | withdrawal of foot (thermal) ([10]; WT mice, after injection in Zusanli point, before: 2.9±0.3): 16.2 ± 2.4 s | touch sensitivity (percentage of negative responses of 10 Von Frey trials) ([10]; WT mice, after injection in Zusanli point, before: 25.0±2.2): 83.3±4.9% | mechanical and thermal hypersensitivity / pain threshold in right foot ([10]; injected in the left (contralateral) Zusanli point): no effect; also recorded: did not alter the pain threshold

O=S(=O)(NCCNC/C=C/c1ccc(Br)cc1)c1cccc2cnccc12 [H-89]
CFA-induced mechanical pain hypersensitivity, contralateral paw ([8]; injected in the Zusanli point): not the contralateral paw | CFA-induced mechanical pain hypersensitivity, ipsilateral (right leg) ([8]; injected in the Zusanli point): transiently and significantly reduced; also recorded: reduced pain temporarily

NC(=O)C1CN(CCCCC(c2ccc(F)cc2)c2ccc(F)cc2)CCN1CC(=O)Nc1c(Cl)cc(N)cc1Cl (centres unmarked) [R75231, 2-(aminocarbonyl)-N-(4-amino-2,6-dichlorophenyl)-4-[5,5-bis(4-fluorophenyl)pentyl]-1-piperazineacetamide]
Ki [11]: 0.1 nM

Nc1ncnc2c1ncn2[C@@H]1O[C@H](CO)[C@@H](O)[C@H]1O [adenosine]
Km [12]: ~0.02 µM

[O]=[Mo](=[O])([O-])[O-] [molybdate]
dephosphorylation of AMP (phosphate production) [2]: partly suppressed dephosphorylation of AMP

From patent publication US20130005676A1 (UNIVERSITY OF ROCHESTER, priority 2009, published 2013)
